Source: patent US20070154567A1, “Use of mercury to treat cancer” (priority 2006, published 2007)

Test system: non-operable neck tumor of unknown origin and metastasis in the lungs
Test: Oral inorganic mercury (II) treatment of a pet English Setter: blood data and clinical follow-up
Assay type: in vivo, dog
Design: Anion Gap / MCV / MCH / MCHC / Neutrophils, absolute / Lymphocytes, absolute / Monocytes, absolute / Eosinophils, absolute: unit not given here
Procedure: A 10 years old female English Setter was diagnosed with a non-operable neck tumor of unknown origin and metastasis in the lungs.
The dog completed 130-day inorganic mercury (II) treatment that consisted of 58 days of the first treatment course followed by 20 days of an interval period, and the 52-day second treatment course. The formulation contained 1 mM mercury acetate in 20 mM sodium acetate buffer, pH 4.5, with 100 mM sucrose and 150 mM sodium chloride additives. It was introduced orally to the dog three times a day at 0.5 micromole Hg^2+/kg/day. At the start of the treatment, the dog was in poor health condition: was easily tired, had difficulty to swallow, heavy breathing due to lung metastasis. The tumor was easily palpated at the neck. […] These changes were correlated with reduction in ALP levels (Days 5, 22, 40, 65).
During the second treatment course the progression of the disease was slowed down, but not to the degree observed during the first treatment course. The treatment was stopped at Day 128, and the dog was euthanized 2-3 weeks later.

CC(=O)[O-].CC(=O)[O-].[Hg+2] [inorganic mercury (II), mercury acetate]
ALT (SGPT) (Day 5): 84 U/L
AST (SGOT) (Day 5): 22 U/L
Albumin (Day 5): 3.3 g/dL
Albumin/Globulin Ratio (Day 5): 1.1
Alkaline Phosphatase (ALP) (Day 5): 204 U/L
Amylase (Day 5): 771 U/L
Anion Gap (Day 5): 26
BUN (Day 5): 39 mg/dL
BUN/Creatinine Ratio (Day 5): 43.3
CPK (Day 5): 84 U/L
Calcium (Day 5): 11.7 mg/dL
Chloride (Day 5): 113 mE/L
Cholesterol (Day 5): 269 mg/dL
Creatinine (Day 5): 0.9 mg/dL
Direct Billirubin (Day 5): 0 mg/dL
Eosinophils, (%) (Day 5): 4%
Eosinophils, absolute (Day 5): 576
GGT (Day 5): 2 U/L
Globulin (Day 5): 2.9 g/dL
Glucose (Day 5): 116 mg/dL
Hematocrit (Day 5): 41.8%
Hemoglobin (Day 5): 14.5 g/dL
Indirect Billirubin (Day 5): 0.2 mg/dL
Lipase (Day 5): 799 U/L
Lymphocytes, (%) (Day 5): 48%
Lymphocytes, absolute (Day 5): 6912
MCH (Day 5): 24.5
MCHC (Day 5): 34.7
MCV (Day 5): 71
Monocytes, (%) (Day 5): 6%
Monocytes, absolute (Day 5): 864
Na/K ratio (Day 5): 32
Neutrophils, (%) (Day 5): 41%
Neutrophils, absolute (Day 5): 5904
Phosphorus (Day 5): 5.2 mg/dL
Platelet count (Day 5): 534 10^3/microl
Potassium (Day 5): 4.8 mE/L
RBC (Day 5): 5.9 10^6/microl
Sodium (Day 5): 152 mE/L
T4 (Day 5): 1.4 µg/dL
Total Billirubin (Day 5): 0.2 mg/dL
Total Protein (Day 5): 6.2 g/dL
WBC (Day 5): 14.4 10^3/microl
tCO2 (Day 5): 18 mEq/L
ALT (SGPT) (Day 22): 84 U/L
AST (SGOT) (Day 22): 13 U/L
Albumin (Day 22): 3.3 g/dL
Albumin/Globulin Ratio (Day 22): 1.2
Alkaline Phosphatase (ALP) (Day 22): 142 U/L
Amylase (Day 22): 738 U/L
Anion Gap (Day 22): 24
BUN (Day 22): 17 mg/dL
BUN/Creatinine Ratio (Day 22): 21.3
CPK (Day 22): 96 U/L
Calcium (Day 22): 10.8 mg/dL
Chloride (Day 22): 113 mE/L
Cholesterol (Day 22): 230 mg/dL
Creatinine (Day 22): 0.8 mg/dL
Direct Billirubin (Day 22): 0 mg/dL
Eosinophils, (%) (Day 22): 2%
Eosinophils, absolute (Day 22): 332
GGT (Day 22): 3 U/L
Globulin (Day 22): 2.8 g/dL
Glucose (Day 22): 102 mg/dL
Hematocrit (Day 22): 44.7%
Hemoglobin (Day 22): 15.2 g/dL
Indirect Billirubin (Day 22): 0.1 mg/dL
Lipase (Day 22): 718 U/L
Lymphocytes, (%) (Day 22): 64%
Lymphocytes, absolute (Day 22): 10624
MCH (Day 22): 24.3
MCHC (Day 22): 34.1
MCV (Day 22): 71
Na/K ratio (Day 22): 26
Neutrophils, (%) (Day 22): 34%
Neutrophils, absolute (Day 22): 5644
Phosphorus (Day 22): 3.6 mg/dL
Platelet count (Day 22): 483 10^3/microl
Potassium (Day 22): 5.7 mE/L
RBC (Day 22): 6.26 10^6/microl
Sodium (Day 22): 150 mE/L
T4 (Day 22): 1.8 µg/dL
Total Billirubin (Day 22): 0.1 mg/dL
Total Protein (Day 22): 6.1 g/dL
WBC (Day 22): 16.6 10^3/microl
tCO2 (Day 22): 19 mEq/L
ALT (SGPT) (Day 40): 87 U/L
AST (SGOT) (Day 40): 20 U/L
Albumin (Day 40): 3.4 g/dL
Albumin/Globulin Ratio (Day 40): 1.1
Alkaline Phosphatase (ALP) (Day 40): 111 U/L
Anion Gap (Day 40): 28
BUN (Day 40): 22 mg/dL
BUN/Creatinine Ratio (Day 40): 24.4
CPK (Day 40): 124 U/L
Calcium (Day 40): 11.0 mg/dL
Chloride (Day 40): 110 mE/L
Cholesterol (Day 40): 222 mg/dL
Creatinine (Day 40): 0.9 mg/dL
Direct Billirubin (Day 40): 0.1 mg/dL
Eosinophils, (%) (Day 40): 1%
Eosinophils, absolute (Day 40): 160
GGT (Day 40): 2 U/L
Globulin (Day 40): 3.0 g/dL
Glucose (Day 40): 99 mg/dL
Hematocrit (Day 40): 46.1%
Hemoglobin (Day 40): 14.8 g/dL
Indirect Billirubin (Day 40): 0 mg/dL
Lymphocytes, (%) (Day 40): 64%
Lymphocytes, absolute (Day 40): 10240
MCH (Day 40): 23.7
MCHC (Day 40): 32.2
MCV (Day 40): 74
Monocytes, (%) (Day 40): 6%
Monocytes, absolute (Day 40): 960
Na/K ratio (Day 40): 26
Neutrophils, (%) (Day 40): 29%
Neutrophils, absolute (Day 40): 4640
Phosphorus (Day 40): 4.6 mg/dL
Platelet count (Day 40): 511 10^3/microl
Potassium (Day 40): 5.7 mE/L
RBC (Day 40): 6.26 10^6/microl
Sodium (Day 40): 151 mE/L
Total Billirubin (Day 40): 0.1 mg/dL
Total Protein (Day 40): 6.4 g/dL
WBC (Day 40): 16 10^3/microl
tCO2 (Day 40): 19 mEq/L
ALT (SGPT) (Day 65): 111 U/L
AST (SGOT) (Day 65): 28 U/L
Albumin (Day 65): 3.5 g/dL
Albumin/Globulin Ratio (Day 65): 1.5
Alkaline Phosphatase (ALP) (Day 65): 78 U/L
Amylase (Day 65): 431 U/L
Anion Gap (Day 65): 27
BUN (Day 65): 30 mg/dL
BUN/Creatinine Ratio (Day 65): 30
CPK (Day 65): 120 U/L
Calcium (Day 65): 10.5 mg/dL
Chloride (Day 65): 109 mE/L
Cholesterol (Day 65): 169 mg/dL
Creatinine (Day 65): 1.0 mg/dL
Direct Billirubin (Day 65): 0.1 mg/dL
Eosinophils, (%) (Day 65): 1%
Eosinophils, absolute (Day 65): 211
GGT (Day 65): 7 U/L
Globulin (Day 65): 2.4 g/dL
Glucose (Day 65): 94 mg/dL
Hematocrit (Day 65): 44.6%
Hemoglobin (Day 65): 14.3 g/dL
Indirect Billirubin (Day 65): 0 mg/dL
Lipase (Day 65): 449 U/L
Lymphocytes, (%) (Day 65): 61%
Lymphocytes, absolute (Day 65): 12871
MCH (Day 65): 23.5
MCHC (Day 65): 32.1
MCV (Day 65): 73
Na/K ratio (Day 65): 29
Neutrophils, (%) (Day 65): 38%
Neutrophils, absolute (Day 65): 8018
Phosphorus (Day 65): 4.4 mg/dL
Platelet count (Day 65): 404 10^3/microl
Potassium (Day 65): 5.2 mE/L
RBC (Day 65): 6.09 10^6/microl
Sodium (Day 65): 150 mE/L
T4 (Day 65): 1.6 µg/dL
Total Billirubin (Day 65): 0.1 mg/dL
Total Protein (Day 65): 5.9 g/dL
WBC (Day 65): 21.1 10^3/microl
tCO2 (Day 65): 19 mEq/L
ALT (SGPT) (Day 103): 95 U/L
AST (SGOT) (Day 103): 25 U/L
Albumin (Day 103): 3.2 g/dL
Albumin/Globulin Ratio (Day 103): 1.3
Alkaline Phosphatase (ALP) (Day 103): 58 U/L
Amylase (Day 103): 745 U/L
Anion Gap (Day 103): 27
BUN (Day 103): 13 mg/dL
BUN/Creatinine Ratio (Day 103): 16.3
CPK (Day 103): 103 U/L
Calcium (Day 103): 9.6 mg/dL
Chloride (Day 103): 107 mE/L
Cholesterol (Day 103): 146 mg/dL
Creatinine (Day 103): 0.8 mg/dL
Direct Billirubin (Day 103): 0.1 mg/dL
Eosinophils, (%) (Day 103): 1%
Eosinophils, absolute (Day 103): 165
GGT (Day 103): 6 U/L
Globulin (Day 103): 2.4 g/dL
Glucose (Day 103): 107 mg/dL
Hematocrit (Day 103): 40.7%
Hemoglobin (Day 103): 13.4 g/dL
Indirect Billirubin (Day 103): 0 mg/dL
Lipase (Day 103): 630 U/L
Lymphocytes, (%) (Day 103): 71%
Lymphocytes, absolute (Day 103): 11715
MCH (Day 103): 23.4
MCHC (Day 103): 32.9
MCV (Day 103): 71
Monocytes, (%) (Day 103): 7%
Monocytes, absolute (Day 103): 1155
Na/K ratio (Day 103): 28
Neutrophils, (%) (Day 103): 20%
Neutrophils, absolute (Day 103): 3300
Phosphorus (Day 103): 3.7 mg/dL
Platelet count (Day 103): 409 10^3/microl
Potassium (Day 103): 5.2 mE/L
RBC (Day 103): 5.72 10^6/microl
Sodium (Day 103): 148 mE/L
T4 (Day 103): 1.4 µg/dL
Total Billirubin (Day 103): 0.1 mg/dL
Total Protein (Day 103): 5.6 g/dL
WBC (Day 103): 16.5 10^3/microl
tCO2 (Day 103): 19 mEq/L
ALT (SGPT) (Day 128): 89 U/L
AST (SGOT) (Day 128): 23 U/L
Albumin (Day 128): 3.0 g/dL
Albumin/Globulin Ratio (Day 128): 1.2
Alkaline Phosphatase (ALP) (Day 128): 45 U/L
Amylase (Day 128): 633 U/L
Anion Gap (Day 128): 22
BUN (Day 128): 24 mg/dL
BUN/Creatinine Ratio (Day 128): 30
CPK (Day 128): 53 U/L
Calcium (Day 128): 9.9 mg/dL
Chloride (Day 128): 116 mE/L
Cholesterol (Day 128): 133 mg/dL
Creatinine (Day 128): 0.8 mg/dL
Direct Billirubin (Day 128): 0.1 mg/dL
Eosinophils, (%) (Day 128): 2%
Eosinophils, absolute (Day 128): 330
GGT (Day 128): 13 U/L
Globulin (Day 128): 2.6 g/dL
Glucose (Day 128): 116 mg/dL
Hematocrit (Day 128): 38.1%
Hemoglobin (Day 128): 12.3 g/dL
Indirect Billirubin (Day 128): 0 mg/dL
Lipase (Day 128): 415 U/L
Lymphocytes, (%) (Day 128): 46%
Lymphocytes, absolute (Day 128): 7774
MCH (Day 128): 22.6
MCHC (Day 128): 32.2
MCV (Day 128): 70
Monocytes, (%) (Day 128): 5%
Monocytes, absolute (Day 128): 845
Na/K ratio (Day 128): 31
Neutrophils, (%) (Day 128): 47%
Neutrophils, absolute (Day 128): 7943
Phosphorus (Day 128): 3.1 mg/dL
Platelet count (Day 128): 508 10^3/microl
Potassium (Day 128): 4.8 mE/L
RBC (Day 128): 5.44 10^6/microl
Sodium (Day 128): 151 mE/L
T4 (Day 128): 1.1 µg/dL
Total Billirubin (Day 128): 0.1 mg/dL
Total Protein (Day 128): 5.6 g/dL
WBC (Day 128): 16.9 10^3/microl
tCO2 (Day 128): 19 mEq/L
general condition (during the first treatment course): steady improvement
progression of the disease (during the second treatment course, not to the degree of the first course): slowed down
